Read-outs that look alike come from different tables or passages of the source. Each block holds one compound with its values, some of them ahead of it.
What was measured:
human GPR142 = molecular target: T1, human GPR142 (Homo sapiens, UniProt Q7Z601); assay: IP-1 accumulation assay in HEK293 cells stably expressing human GPR142; assay type: cell-based; settings: for HEK293-hGPR142 EC50 (Emax): activity call, tested 170 nM to 30 mM; for EC50: IP-1 accumulation, 1 hour, read-out: HEK293-hGPR142 EC50
T1 construct: expressed in transfected cells
T1 sequence (Q7Z601 1-374 isoform Q7Z601-2): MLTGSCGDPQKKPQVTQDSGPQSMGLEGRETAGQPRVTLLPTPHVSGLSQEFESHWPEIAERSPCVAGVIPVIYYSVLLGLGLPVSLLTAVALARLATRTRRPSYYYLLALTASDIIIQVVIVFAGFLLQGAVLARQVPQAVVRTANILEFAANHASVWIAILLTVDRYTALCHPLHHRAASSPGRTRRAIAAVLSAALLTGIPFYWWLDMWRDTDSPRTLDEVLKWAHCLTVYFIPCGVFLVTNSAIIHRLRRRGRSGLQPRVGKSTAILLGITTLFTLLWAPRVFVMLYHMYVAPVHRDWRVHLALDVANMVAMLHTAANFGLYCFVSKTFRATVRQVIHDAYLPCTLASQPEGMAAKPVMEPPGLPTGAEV
Description: (§1) HEK293 cells obtained from ATCC were used to generate cell lines stably expressing human GPR142 or mouse Gpr142 by transfecting cells with pcDNA3.1 expression vectors containing each cDNA. Cells expanded from single clones were maintained in DMEM containing 10% fetal bovine serum (FBS) and 800 μg/ml G418. Untransfected control HEK293 cells were maintained in DMEM containing 10% FBS. Cells were plated in 384 well plates at 5000 cells per well and allowed 18 hours for attachment. After addition of compounds, cells were incubated for 1 hour. IP-1 measurements were performed using an HTRF assay kit (Cisbio) according to manufacturer’s protocol using assay buffer containing 1 × HBSS (Hank’s Balanced Salt Solution, +Ca, +Mg), 0.1% bovine serum albumin (BSA), 50 mM LiCl and 20 mM HEPES (4-(2-hydroxyethyl)-1-piperazineethanesulfonic acid), pH 7.2. The reaction was stopped by addition of IP1-d2 followed by cryptate solution and the plates were incubated at 25°C for 1 hour. Fluorescence was read in an Envision instrument at 665 nm and 620 nm. The ratio of 665 nm/620 nm was calculated and converted to IP-1 levels using a standard curve method. The data was fit to 4-parameter fit logistics to determine EC50 values.

[1] = Glucose tolerance test (IPGTT/OGTT) after oral dosing in mice; assay type: in vivo, mouse; settings: p.o. 30 minutes before glucose 2 g/kg; OGTT 10 mg/kg diet-induced obese C57 mice, IPGTT 30 mg/kg
Description: (§2) Mice were fasted overnight and allowed free access to water. […] Tail blood glucose levels were measured at indicated time points using handheld glucometers. For incretin hormone measurements, blood was collected via cardiac bleeds into EDTA-tubes containing DPP-4 inhibitor (Millipore) and protease inhibitor cocktail (Thermo Fisher). For insulin measurements during GTT, blood was collected from the tail.

murine pancreatic islets = assay: Insulin secretion in isolated murine pancreatic islets (WT and Gpr142 KO); assay type: cell-based, mouse; settings: 11.1 mM glucose, 1 hour
Description: Secretion was stopped by refrigerating the plates at 4°C for 3 minutes. Supernatant was removed from the wells and assayed for insulin levels using the MA6000 Mouse/Rat Insulin Kit (Meso Scale Discovery).

human pancreatic islets = assay: Insulin secretion in isolated human pancreatic islets; assay type: cell-based; settings: 11 mM glucose, 1 hour, non-diabetic donor
From the text: Human pancreatic islets were purchased from Prodo Labs at the Scharp-Lacy Research Institute (Irvine, CA, www.prodolabs.com) through the Integrated Islet Distribution Program in accordance with internal review board (IRB) ethical guidelines for use of human tissue. Islets were isolated at Prodo Labs from human pancreata from listed cadaver organ donors that were refused for primary human pancreas transplantation or isolated islets transplantion into listed diabetic recipients. […] The next day day islets were incubated for 30 min in EBSS buffer containing 0.1% BSA and 3 mM glucose. […] Islets were cultured for 60 min at 37°C. The incubation was stopped by chilling the samples on ice. The culture media was removed and stored at -20°C until its insulin concentration was measured. Insulin was measured using a custom built immunoassay (Meso Scale Discovery).

mouse GPR142 = molecular target: T2, mouse GPR142 (Mus musculus, UniProt Q7TQN9); assay: IP-1 accumulation assay in HEK293 cells stably expressing mouse Gpr142; assay type: cell-based
T2 sequence (Q7TQN9 67-365 limits assumed): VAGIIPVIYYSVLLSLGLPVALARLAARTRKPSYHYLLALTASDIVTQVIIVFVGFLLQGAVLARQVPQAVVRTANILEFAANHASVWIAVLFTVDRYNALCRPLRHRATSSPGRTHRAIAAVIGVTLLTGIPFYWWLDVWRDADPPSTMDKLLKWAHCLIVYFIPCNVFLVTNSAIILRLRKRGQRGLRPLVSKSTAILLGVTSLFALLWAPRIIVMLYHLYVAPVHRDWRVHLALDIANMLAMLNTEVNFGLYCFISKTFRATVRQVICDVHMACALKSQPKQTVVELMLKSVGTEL
Description: as §1

[2] = Plasma insulin and incretin hormone levels after oral dosing in mice; assay type: in vivo, mouse
Description: as §2
Immunoassays were used to measure total GIP (Millipore, ELISA), total GLP-1, and insulin (Meso Scale Discovery). Enzymatic assays were used to measure TG, beta-hydroxybutarate (Sigma-Aldrich), and total cholesterol (Thermo Fisher). HDL-cholesterol was determined in the supernatant after removal of LDL/vLDL-cholesterol by a precipitation reagent (Sigma-Aldrich); non-HDL-cholesterol was determined by subtracting HDL from total cholesterol. Free fatty acids were measured by GC-MS.

[3] = HEK293, relative efficacy normalized to maximal response of L-Tryptophan (100%), read-out: HEK293-hGPR142 Emax
[4] = 30 mg/kg p.o., normal C57 mice, fasted state and after oral glucose challenge

HEK293-hGPR142 EC50 (Emax) (human GPR142): Inactive
Structure (SMILES): CC(C)C[C@H](N)C(=O)O [L-Leucine]

HEK293-hGPR142 EC50 (Emax) (human GPR142): Inactive
Structure (SMILES): C[C@H](N)C(=O)O [L-Alanine]

Structure (SMILES): N[C@@H](CCC(=O)O)C(=O)O [L-Glutamic Acid]
HEK293-hGPR142 EC50 (Emax) (human GPR142): Inactive

HEK293-hGPR142 EC50 (Emax) (human GPR142): Inactive
Structure (SMILES): O=C(O)[C@@H]1CCCN1 [L-Proline]

HEK293-hGPR142 EC50 (Emax) (human GPR142): Inactive
Structure (SMILES): CC(C)[C@H](N)C(=O)O [L-Valine]

HEK293-hGPR142 EC50 (Emax) (human GPR142): Inactive
Structure (SMILES): N[C@@H](CO)C(=O)O [L-Serine]

Emax (human GPR142; [3]): 90%
EC50 (human GPR142; 0.17 nM to 30 μM): 7.1e-06 mM
Emax (mouse GPR142; HEK293, relative efficacy normalized to maximal response of L-Tryptophan (100%), read-out: HEK293-mGPR142 Emax): 90%
EC50 (mouse GPR142; IP-1 accumulation, 1 hour, 0.17 nM to 30 μM, read-out: HEK293-mGPR142 EC50): 0.88 nM
Structure (SMILES): CCCc1c(C(=O)NCc2cncn2C)cnn1-c1ncc(C)c(-c2cccs2)n1 [Compound A, N-[(3-methylimidazol-4-yl)methyl]-1-[5-methyl-4-(2-thienyl)pyrimidin-2-yl]-5-propyl-pyrazole-4-carboxamide]
glucose excursion during OGTT and IPGTT [1]: robust suppression of glucose excursion
insulin secretion in WT murine islets (murine pancreatic islets): stimulated ex vivo insulin secretion
insulin secretion in human primary islets (human pancreatic islets): stimulated ex vivo insulin secretion
plasma insulin during glucose tolerance test ([2]; 10 mg/kg p.o., diet-induced obese C57 mice, 15 minutes after glucose challenge): increase in plasma insulin
meal induced GIP, GLP-1, and insulin levels ([2]; 30 mg/kg p.o. 30 minutes prior to oral mixed meal challenge (Ensure-plus 10 mL/kg), C57 mice): additional stimulatory effects
effects on plasma hormones and glycemia in Gpr142 KO mice ([2]; 30 mg/kg p.o., KO mice): completely absent
plasma GIP level [2, 4]: significantly increased
plasma GLP-1 level [2, 4]: significantly increased

HEK293-hGPR142 EC50 (Emax) (human GPR142): Inactive
Structure (SMILES): N[C@@H](Cc1c[nH]cn1)C(=O)O [L-Histidine]

Structure (SMILES): N=C(N)NCCC[C@H](N)C(=O)O [L-Arginine]
Emax (human GPR142; HEK293, read-out: HEK293-hGPR142 Emax): 23%
EC50 (human GPR142; 170 nM to 30 mM): > 20 mM

EC50 (human GPR142; 170 nM to 30 mM): 12 mM
HEK293-hGPR142 Emax (human GPR142; relative efficacy normalized to maximal response of L-Tryptophan (100%)): 34%
Structure (SMILES): N[C@@H](Cc1c[nH]c2ccc(O)cc12)C(=O)O [5-OH L-Tryptophan]

Emax (human GPR142; [3]): 14%
EC50 (human GPR142; 170 nM to 30 mM): 16 mM
Structure (SMILES): N[C@@H](Cc1ccc(O)cc1)C(=O)O [L-Tyrosine]

Emax (human GPR142; [3]): 20%
EC50 (human GPR142; 170 nM to 30 mM): 16 mM
Structure (SMILES): NCCCC[C@H](N)C(=O)O [L-Lysine]

HEK293-hGPR142 EC50 (Emax) (human GPR142): Inactive
Structure (SMILES): C[C@@H](O)[C@H](N)C(=O)O [L-Threonine]
